{"source": "paper PMC5218480", "about": "(PLoS ONE, 2017)", "system": "MV-4-11 cells", "experiment": "Gene expression microarray analysis (Affymetrix PrimeView) and GSEA", "assay_type": "cell-based, human", "design": "RFU PODN (11730768_x_at) / Fold change /veh PODN (11730768_x_at) / RFU LINC00158 (11744669_a_at) / Fold change /veh LINC00158 (11744669_a_at) / RFU DUSP10 (11751237_a_at) / Fold change /veh DUSP10 (11751237_a_at) / RFU ID3 (11757404_x_at) / Fold change /veh ID3 (11757404_x_at) / RFU PLEKHG5 (11737974_s_at) / Fold change /veh PLEKHG5 (11737974_s_at) / RFU LRRC4B (11730491_at) / Fold change /veh LRRC4B (11730491_at) / RFU GIMAP4 (11747438_a_at) / Fold change /veh GIMAP4 (11747438_a_at) / RFU KRT8 (11758183_x_at) / Fold change /veh KRT8 (11758183_x_at) / RFU CNN1 (11734310_a_at) / Fold change /veh CNN1 (11734310_a_at) / RFU VPS37D (11726825_at) / Fold change /veh VPS37D (11726825_at) / RFU C10orf10 (11716522_x_at) / Fold change /veh C10orf10 (11716522_x_at) / RFU KIR2DL2 /// KIR2DL4 /// KIR2DL5A /// KIR2DL5B /// KIR2DS1 /// KIR2DS2 /// KIR2DS3 /// KIR2DS4 /// KIR3DL3 /// KIR3DL3 /// KIR3DS1 (11738374_at) / Fold change /veh KIR2DL2 /// KIR2DL4 /// KIR2DL5A /// KIR2DL5B /// KIR2DS1 /// KIR2DS2 /// KIR2DS3 /// KIR2DS4 /// KIR3DL3 /// KIR3DL3 /// KIR3DS1 (11738374_at) / RFU C1QL1 (11718748_at) / Fold change /veh C1QL1 (11718748_at) / RFU TMPRSS4 (11747572_a_at) / Fold change /veh TMPRSS4 (11747572_a_at) / RFU HAMP (11756126_x_at) / Fold change /veh HAMP (11756126_x_at) / RFU RNFT2 (11725882_a_at) / Fold change /veh RNFT2 (11725882_a_at) / RFU NR4A2 (11747474_a_at) / Fold change /veh NR4A2 (11747474_a_at) / RFU ABCC12 (11746883_a_at) / Fold change /veh ABCC12 (11746883_a_at) / RFU TMEM136 (11760407_x_at) / Fold change /veh TMEM136 (11760407_x_at) / RFU CLDN22 /// WWC2 (11732394_at) / Fold change /veh CLDN22 /// WWC2 (11732394_at) / RFU HLA-DPB1 (11760878_x_at) / Fold change /veh HLA-DPB1 (11760878_x_at) / RFU SPINT1 (11716480_a_at) / Fold change /veh SPINT1 (11716480_a_at) / RFU GAP43 (11754022_s_at) / Fold change /veh GAP43 (11754022_s_at) / RFU A4GNT (11735810_at) / Fold change /veh A4GNT (11735810_at) / RFU PRB3 (11715151_x_at) / Fold change /veh PRB3 (11715151_x_at) / RFU TUBB4B (11761932_at) / Fold change /veh TUBB4B (11761932_at) / RFU CAPN14 (11732068_a_at) / Fold change /veh CAPN14 (11732068_a_at) / RFU TMCC2 (11721928_a_at) / Fold change /veh TMCC2 (11721928_a_at) / RFU IRGQ (11745062_a_at) / Fold change /veh IRGQ (11745062_a_at) / RFU FAM174B (11720279_a_at) / Fold change /veh FAM174B (11720279_a_at) / RFU TMPRSS4 (11748680_a_at) / Fold change /veh TMPRSS4 (11748680_a_at) / RFU FAM212B (11763350_a_at) / Fold change /veh FAM212B (11763350_a_at) / RFU PLEKHG5 (11743358_a_at) / Fold change /veh PLEKHG5 (11743358_a_at) / RFU ZSCAN30 (11745921_a_at) / Fold change /veh ZSCAN30 (11745921_a_at) / RFU CMKLR1 (11741424_a_at) / Fold change /veh CMKLR1 (11741424_a_at) / RFU LOC101060620 /// MAPK8IP1 (11723275_at) / Fold change /veh LOC101060620 /// MAPK8IP1 (11723275_at) / RFU SPTSSB (11747773_x_at) / Fold change /veh SPTSSB (11747773_x_at) / RFU PRSS12 (11739890_at) / Fold change /veh PRSS12 (11739890_at) / RFU BIN1 (11741810_x_at) / Fold change /veh BIN1 (11741810_x_at) / RFU WNT11 (11732464_a_at) / Fold change /veh WNT11 (11732464_a_at) / RFU C10orf10 (11716521_a_at) / Fold change /veh C10orf10 (11716521_a_at) / RFU C5orf56 (11738089_at) / Fold change /veh C5orf56 (11738089_at) / RFU CYB561 (11721691_x_at) / Fold change /veh CYB561 (11721691_x_at) / RFU ANKRD19P (11752326_a_at) / Fold change /veh ANKRD19P (11752326_a_at) / RFU OR2T12 /// OR2T33 /// OR2T8 (11738714_s_at) / Fold change /veh OR2T12 /// OR2T33 /// OR2T8 (11738714_s_at) / RFU VCAN (11748164_a_at) / Fold change /veh VCAN (11748164_a_at) / RFU JSRP1 (11732532_at) / Fold change /veh JSRP1 (11732532_at) / RFU KRTAP10-11 (11738290_x_at) / Fold change /veh KRTAP10-11 (11738290_x_at) / RFU MYO3A (11730013_a_at) / Fold change /veh MYO3A (11730013_a_at) / RFU EBF3 (11725865_a_at) / Fold change /veh EBF3 (11725865_a_at) / RFU CAMK2N1 (11719241_x_at) / Fold change /veh CAMK2N1 (11719241_x_at) / RFU C5orf56 (11738088_a_at) / Fold change /veh C5orf56 (11738088_a_at) / RFU OLFML3 (11715873_a_at) / Fold change /veh OLFML3 (11715873_a_at) / RFU LOC100653217 /// NTM (11731650_a_at) / Fold change /veh LOC100653217 /// NTM (11731650_a_at) / RFU MAPK11 (11762145_a_at) / Fold change /veh MAPK11 (11762145_a_at) / RFU FIZ1 (11724087_x_at) / Fold change /veh FIZ1 (11724087_x_at) / RFU OASL (11726364_x_at) / Fold change /veh OASL (11726364_x_at) / RFU SOX15 (11748057_x_at) / Fold change /veh SOX15 (11748057_x_at) / RFU CD79A (11719716_a_at) / Fold change /veh CD79A (11719716_a_at) / RFU HIST1H1D (11736915_at) / Fold change /veh HIST1H1D (11736915_at) / RFU CASKIN2 (11723855_a_at) / Fold change /veh CASKIN2 (11723855_a_at) / RFU LOC730098 (11760151_x_at) / Fold change /veh LOC730098 (11760151_x_at) / RFU OR4N2 (11742367_at) / Fold change /veh OR4N2 (11742367_at) / RFU PRRT2 (11749266_a_at) / Fold change /veh PRRT2 (11749266_a_at) / RFU SNX32 (11753110_a_at) / Fold change /veh SNX32 (11753110_a_at) / RFU CDHR5 (11726645_a_at) / Fold change /veh CDHR5 (11726645_a_at) / RFU RCAN1 (11760418_a_at) / Fold change /veh RCAN1 (11760418_a_at) / RFU FAM167A (11723789_a_at) / Fold change /veh FAM167A (11723789_a_at) / RFU FAM26E (11764081_at) / Fold change /veh FAM26E (11764081_at) / RFU ISYNA1 (11749810_s_at) / Fold change /veh ISYNA1 (11749810_s_at) / RFU ACY1 (11761880_at) / Fold change /veh ACY1 (11761880_at) / RFU 11764098_at / Fold change /veh 11764098_at / RFU SAMD14 (11745864_x_at) / Fold change /veh SAMD14 (11745864_x_at) / RFU NPB (11741838_a_at) / Fold change /veh NPB (11741838_a_at) / RFU TMPRSS6 (11731388_a_at) / Fold change /veh TMPRSS6 (11731388_a_at) / RFU KRTAP10-2 (11738614_at) / Fold change /veh KRTAP10-2 (11738614_at) / RFU ARHGAP8 /// PRR5-ARHGAP8 (11727945_x_at) / Fold change /veh ARHGAP8 /// PRR5-ARHGAP8 (11727945_x_at) / RFU KRTAP5-7 /// NADSYN1 (11734609_at) / Fold change /veh KRTAP5-7 /// NADSYN1 (11734609_at) / RFU RASL12 (11751679_a_at) / Fold change /veh RASL12 (11751679_a_at) / RFU CDKN2B (11736163_a_at) / Fold change /veh CDKN2B (11736163_a_at) / RFU PRF1 (11729649_at) / Fold change /veh PRF1 (11729649_at) / RFU, ZNF638 /// ZNF638-IT1 / Fold change vs veh, ZNF638 /// ZNF638-IT1 / RFU, PANK3 / Fold change vs veh, PANK3 / RFU, SH3YL1 / Fold change vs veh, SH3YL1 / RFU, ZEB2 / Fold change vs veh, ZEB2 / RFU, NRIP1 / Fold change vs veh, NRIP1 / RFU, PTTG1IP / Fold change vs veh, PTTG1IP / RFU, CAPN2 / Fold change vs veh, CAPN2 / RFU, MED14 / Fold change vs veh, MED14 / RFU, SNORA58 / Fold change vs veh, SNORA58 / RFU, C1orf63 / Fold change vs veh, C1orf63 / RFU, LRRFIP1 / Fold change vs veh, LRRFIP1 / RFU, NDUFAF7 / Fold change vs veh, NDUFAF7 / RFU, SLC12A2 / Fold change vs veh, SLC12A2 / RFU, IBTK / Fold change vs veh, IBTK / RFU, ESF1 / Fold change vs veh, ESF1 / Fold change vs veh, TMEM50B / RFU, TAOK1 / Fold change vs veh, TAOK1 / RFU, ACBD3 / Fold change vs veh, ACBD3 / RFU, TMA16 / Fold change vs veh, TMA16 / RFU, RWDD3 / Fold change vs veh, RWDD3 / RFU, BCAT1 / Fold change vs veh, BCAT1 / RFU, EDEM3 / Fold change vs veh, EDEM3 / RFU, TMEM33 / Fold change vs veh, TMEM33 / RFU, WDR75 / Fold change vs veh, WDR75 / RFU, AHCTF1 / Fold change vs veh, AHCTF1 / RFU, TFRC / Fold change vs veh, TFRC / RFU, ZDHHC17 / Fold change vs veh, ZDHHC17 / RFU, NOM1 / Fold change vs veh, NOM1 / RFU, ARL8B / Fold change vs veh, ARL8B / RFU, ZBTB11 / Fold change vs veh, ZBTB11 / RFU, TAMM41 / Fold change vs veh, TAMM41 / RFU, KIAA1704 /// LOC100996395 / Fold change vs veh, KIAA1704 /// LOC100996395 / RFU, ING1 / Fold change vs veh, ING1 / RFU, TRMT61B / Fold change vs veh, TRMT61B / RFU, FUBP3 / Fold change vs veh, FUBP3 / RFU, TP53 / Fold change vs veh, TP53 / RFU, TNKS2 / Fold change vs veh, TNKS2 / RFU, ZFP14 / Fold change vs veh, ZFP14 / RFU, ACTR2 / Fold change vs veh, ACTR2 / RFU, PPP3R1 / Fold change vs veh, PPP3R1 / RFU, PIK3R1 / Fold change vs veh, PIK3R1 / RFU, HNRNPA1 / Fold change vs veh, HNRNPA1 / RFU, RNF170 / Fold change vs veh, RNF170 / RFU, ZNF28 / Fold change vs veh, ZNF28 / RFU, RNGTT / Fold change vs veh, RNGTT / RFU, OGT / Fold change vs veh, OGT / RFU, BRD1 / Fold change vs veh, BRD1 / RFU, MARS / Fold change vs veh, MARS / RFU, ZNF655 / Fold change vs veh, ZNF655 / RFU, FAHD1 / Fold change vs veh, FAHD1 / RFU, BDP1 / Fold change vs veh, BDP1 / RFU, LRRCC1 / Fold change vs veh, LRRCC1 / RFU, ARID1A / Fold change vs veh, ARID1A / RFU, ZNF146 / Fold change vs veh, ZNF146 / RFU, ZNF330 / Fold change vs veh, ZNF330 / RFU, GPN3 / Fold change vs veh, GPN3 / RFU, C9orf123 / Fold change vs veh, C9orf123 / RFU, N4BP2L2 / Fold change vs veh, N4BP2L2 / RFU, ARFIP1 / Fold change vs veh, ARFIP1 / RFU, FAM179B / Fold change vs veh, FAM179B / RFU, BCL10 / Fold change vs veh, BCL10 / RFU, UHRF1BP1L / Fold change vs veh, UHRF1BP1L / RFU, BET1 / Fold change vs veh, BET1 / RFU, CNOT2 / Fold change vs veh, CNOT2 / RFU, ZNF268 / Fold change vs veh, ZNF268 / Fold change vs veh, ZNF507 / RFU, DGCR2 / Fold change vs veh, DGCR2 / RFU, WDSUB1 / Fold change vs veh, WDSUB1 / Fold change vs veh, HSP90B1 /// MIR3652 / RFU, ADSS / Fold change vs veh, ADSS / RFU, GK / Fold change vs veh, GK / RFU, ZNF148 / Fold change vs veh, ZNF148 / RFU, TAF9 / Fold change vs veh, TAF9 / RFU, SLC1A5 / Fold change vs veh, SLC1A5 / RFU, SLMO2 / Fold change vs veh, SLMO2 / RFU, ABCC4 / Fold change vs veh, ABCC4 / RFU, LOC101060439 /// RAP1B / Fold change vs veh, LOC101060439 /// RAP1B / RFU, RFX7 / Fold change vs veh, RFX7 / RFU, GTPBP10 / Fold change vs veh, GTPBP10 / RFU, CNEP1R1 / Fold change vs veh, CNEP1R1 / RFU, BIVM-ERCC5 /// ERCC5 / Fold change vs veh, BIVM-ERCC5 /// ERCC5 / RFU, ILF3 / Fold change vs veh, ILF3 / RFU 11762660_at / Fold change /veh 11762660_at / RFU VCAN (11757783_s_at) / Fold change /veh VCAN (11757783_s_at) / RFU DDX43 (11728927_at) / Fold change /veh DDX43 (11728927_at) / RFU KRT8 (11758188_x_at) / Fold change /veh KRT8 (11758188_x_at) / RFU NKD1 (11759106_at) / Fold change /veh NKD1 (11759106_at) / RFU SRD5A1 (11742802_a_at) / Fold change /veh SRD5A1 (11742802_a_at) / RFU TPSAB1 /// TPSB2 (11721975_s_at) / Fold change /veh TPSAB1 /// TPSB2 (11721975_s_at) / RFU GSTM3 (11746129_a_at) / Fold change /veh GSTM3 (11746129_a_at) / RFU IL23R (11737362_x_at) / Fold change /veh IL23R (11737362_x_at) / RFU TMEM51 (11727254_a_at) / Fold change /veh TMEM51 (11727254_a_at) / RFU PIWIL2 (11732686_x_at) / Fold change /veh PIWIL2 (11732686_x_at) / RFU ORM1 (11744905_x_at) / Fold change /veh ORM1 (11744905_x_at) / RFU CCDC152 (11743942_at) / Fold change /veh CCDC152 (11743942_at) / RFU ECM1 (11717891_a_at) / Fold change /veh ECM1 (11717891_a_at) / RFU IL23R (11748794_a_at) / Fold change /veh IL23R (11748794_a_at) / RFU TNFAIP8L3 (11732012_x_at) / Fold change /veh TNFAIP8L3 (11732012_x_at) / RFU MBOAT4 (11741988_at) / Fold change /veh MBOAT4 (11741988_at) / RFU 11764193_at / Fold change /veh 11764193_at / RFU TMEM53 (11763286_at) / Fold change /veh TMEM53 (11763286_at) / RFU MAGEB2 (11727129_at) / Fold change /veh MAGEB2 (11727129_at) / RFU TMEM200A (11744735_a_at) / Fold change /veh TMEM200A (11744735_a_at) / RFU CCDC152 (11751479_a_at) / Fold change /veh CCDC152 (11751479_a_at) / RFU FAM211A (11726209_a_at) / Fold change /veh FAM211A (11726209_a_at) / RFU RGS16 (11746705_a_at) / Fold change /veh RGS16 (11746705_a_at) / RFU VCAN (11755009_s_at) / Fold change /veh VCAN (11755009_s_at) / RFU RHOB (11743442_s_at) / Fold change /veh RHOB (11743442_s_at) / RFU RGS16 (11720943_a_at) / Fold change /veh RGS16 (11720943_a_at) / RFU RGS16 (11720944_at) / Fold change /veh RGS16 (11720944_at) / RFU, VPS4B / Fold change vs veh, VPS4B / RFU, CREB1 / Fold change vs veh, CREB1 / RFU, DNAJC13 / Fold change vs veh, DNAJC13 / RFU, GNAQ / Fold change vs veh, GNAQ / RFU, CDK5R1 / Fold change vs veh, CDK5R1 / RFU, ZRANB3 / Fold change vs veh, ZRANB3 / RFU, CUL4A / Fold change vs veh, CUL4A / RFU, CCNY / Fold change vs veh, CCNY / RFU, UFL1 / Fold change vs veh, UFL1 / RFU, COG3 / Fold change vs veh, COG3 / RFU, DIAPH2 / Fold change vs veh, DIAPH2 / RFU, SKA2 / Fold change vs veh, SKA2 / RFU, AFF3 / Fold change vs veh, AFF3 / RFU, LMF1 / Fold change vs veh, LMF1 / RFU, IPO11 / Fold change vs veh, IPO11 / RFU, DFFB / Fold change vs veh, DFFB / RFU, FOXP1 / Fold change vs veh, FOXP1 / RFU, CARD8 / Fold change vs veh, CARD8 / RFU, STRN3 / Fold change vs veh, STRN3 / RFU, ADK / Fold change vs veh, ADK / RFU, RASSF2 / Fold change vs veh, RASSF2 / RFU, WIPF1 / Fold change vs veh, WIPF1 / RFU, LARP1B / Fold change vs veh, LARP1B / RFU, RASA1 / Fold change vs veh, RASA1 / RFU, RB1 / Fold change vs veh, RB1 / RFU, PPFIA1 / Fold change vs veh, PPFIA1 / RFU, MAT2A / Fold change vs veh, MAT2A / RFU, CCT5 / Fold change vs veh, CCT5 / RFU, WDR92 / Fold change vs veh, WDR92 / RFU, CUX1 / Fold change vs veh, CUX1 / RFU, TTC7A / Fold change vs veh, TTC7A / RFU, TMEM135 / Fold change vs veh, TMEM135 / RFU, DEPTOR / Fold change vs veh, DEPTOR / RFU, CPM / Fold change vs veh, CPM / RFU, DNAJB6 / Fold change vs veh, DNAJB6 / RFU, CACNA2D3 / Fold change vs veh, CACNA2D3 / RFU, DTX4 / Fold change vs veh, DTX4 / RFU, TFCP2 / Fold change vs veh, TFCP2 / RFU, GMCL1 /// GMCL1P1 / Fold change vs veh, GMCL1 /// GMCL1P1 / RFU, AEBP2 / Fold change vs veh, AEBP2 / RFU, SNHG1 /// SNORD22 /// SNORD25 /// SNORD26 /// SNORD27 /// SNORD28 /// SNORD29 /// SNORD31 / Fold change vs veh, SNHG1 /// SNORD22 /// SNORD25 /// SNORD26 /// SNORD27 /// SNORD28 /// SNORD29 /// SNORD31 / Fold change (Aza/veh), C12orf56 (ProbeSet 11735607_a_at) / Fold change (ACY-1035/veh), C12orf56 (ProbeSet 11735607_a_at) / Fold change (Aza/veh), FGFR1OP (ProbeSet 11751329_s_at) / Fold change (ACY-1035/veh), FGFR1OP (ProbeSet 11751329_s_at) / Fold change (Aza/veh), VPS36 (ProbeSet 11739960_a_at) / Fold change (ACY-1035/veh), VPS36 (ProbeSet 11739960_a_at) / RFU SYPL1 (11715823_x_at) / Fold change /veh SYPL1 (11715823_x_at) / RFU IGFBP7 (11715501_s_at) / Fold change /veh IGFBP7 (11715501_s_at) / RFU REEP3 (11722064_at) / Fold change /veh REEP3 (11722064_at) / RFU IGLL1 (11728026_x_at) / Fold change /veh IGLL1 (11728026_x_at): dose or concentration left out as unconfirmed", "conditions": "ProbeSet 11743929_at; LIST B"}
{"smiles": "Nc1ncn([C@@H]2O[C@H](CO)[C@@H](O)[C@H]2O)c(=O)n1", "note": "[azacitidine]", "values": [{"measurement": "RFU, UHRF1BP1L", "result": 257.64, "unit": "RFU"}]}
